In US20220323455A1, “FUSED HETEROCYCLIC DERIVATIVES AS ANTIVIRAL AGENTS” (priority 2019, published 2022):

Tested on: HBV
Experiment: HBV replication inhibition assay (BDNA assay) in HepG2.2.15 cells
Assay type: cell-based, Hepatitis B virus
Settings: 6 days, encapsidated HBV DNA in supernatant
Procedure: HBV replication inhibition by the disclosed compounds were determined in cells infected or transfected with HBV or cells with stably integrated HBV, such as HepG2.2.15 cells (Sells et al. 1987). In this example, HepG2.2.15 cells were maintained in cell culture medium containing 10% fetal bovine serum (FBS), Geneticin, L-glutamine, penicillin and streptomycin. HepG2.2.15 cells were seeded in 96-well plates at a density of 40,000 cells/well and were treated with serially diluted compounds at a final DMSO concentration of 0.5% either alone or in combination by adding drugs in a checker box format. Cells were incubated with compounds for three days, after which medium was removed and fresh medium containing compounds was added to cells and incubated for another three days. At day 6, supernatant was removed and treated with DNase at 37° C. for 60 minutes, followed by enzyme inactivation at 75° C. for 15 minutes. Encapsidated HBV DNA was released from the virions and covalently linked HBV polymerase by incubating in lysis buffer (Affymetrix QS0010) containing 2.5 μg proteinase K at 50° C. for 40 minutes. HBV DNA was denatured by addition of 0.2 M NaOH and detected using a branched DNA (BDNA) QuantiGene assay kit according to manufacturer recommendation (Affymetrix). HBV DNA levels were also quantified using qPCR, based on amplification of encapsidated HBV DNA extraction with QuickExtraction Solution (Epicentre Biotechnologies) and amplification of HBV DNA using HBV specific PCR probes that can hybridize to HBV DNA and a fluorescently labeled probe for quantitation. In addition, cell viability of HepG2.2.15 cells incubated with test compounds alone or in combination was determined by using CellTitre-Glo reagent according to the manufacturer protocol (Promega). The mean background signal from wells containing only culture medium was subtracted from all other samples, and percent inhibition at each compound concentration was calculated by normalizing to signals from HepG2.2.15 cells treated with 0.5% DMSO using equation E1.
% inhibition(DMSOave−Xi)DMSOave×100% E1:
where DMSOave is the mean signal calculated from the wells that were treated with DMSO control (0% inhibition control) and Xi is the signal measured from the individual wells. EC50 values, effective concentrations that achieved 50% inhibitory effect, were determined by non-linear fitting using Graphpad Prism software (San Diego, Calif.) and equation E2.
Y=Ymin+(Ymax−Ymin)/(1+10(Log EC50−X)×HillSlope) E2:
where Y represents percent inhibition values and X represents the logarithm of compound concentrations.
Selected disclosed compounds were assayed in the HBV replication assay (BDNA assay), as described above, and a representative group of these active compounds is shown in Table 5.

SMILES | EC50 [nM]
N#CCC1(O)CCC(F)(F)c2c3c(nn2C1)CCN(C(=O)Nc1ccnc(Br)c1F)C3 (single isomer, unassigned) [Example 43, (S*)—N-(2-Bromo-3-fluoropyridin-4-yl)-8-(cyanomethyl)-11,11-difluoro-8-hydroxy-34,89,10,11-hexahydro-1H-pyrido[4′,3′:3,4]pyrazolo[1,5-a]azepine-2(7H)-carboxamide] | 282
C[C@@H]1Cc2nn3c(c2CN1C(=O)Nc1ccnc(Br)c1F)C(F)=CC(O)CC3 (single isomer, unassigned) [Example 124, (3R,9S*)—N-(2-Bromo-3-fluoropyridin-4-yl)-11-fluoro-9-hydroxy-3-methyl-3,4,8,9-tetrahydro-1H-pyrido[4′,3:3,4]pyrazolo[1,5-a]azepine-2(7H)-carboxamide] | 26
C[C@@H]1Cc2nn3c(c2CN1C(=O)Nc1ccnc(Br)c1F)C(F)(F)CCC(O)(CC#N)C3 (single isomer, unassigned) [Example 91, (3R,8R*)—N-(2-Bromo-3-fluoropyridin-4-yl)-8-(cyanomethyl)-11,11-difluoro-8-hydroxy-3-methyl-3,4,8,9,10,11-hexahydro-1H-pyrido[4′,3′:3,4]pyrazolo[1,5-a]azepine-2(7H)-carboxamide] | 30
C[C@@H]1Cc2nn3c(c2CN1C(=O)Nc1ccc(F)c(C#N)c1)C(F)(F)CCC(O)(CF)C3 (single isomer, unassigned) [Example 86, (3R,8S*)—N-(3-Cyano-4-fluorophenyl)-11,11-difluoro-8-(fluoromethyl)-8-hydroxy-3-methyl-3,4,8,9,10,11-hexahydro-1H-pyrido[4′,3′:3,4]pyrazolo[1,5-a]azepine-2(7H)-carboxamide] | 20
C[C@@H]1Cc2nn3c(c2CN1C(=O)Nc1ccnc(C(F)F)c1F)C(F)(F)CCC(O)(CF)C3 (single isomer, unassigned) [Example 88, (3R,8S*)—N-(2-(Difluoromethyl)-3-fluoropyridin-4-yl)-11,11-difluoro-8-(fluoromethyl)-8-hydroxy-3-methyl-3,4,8,9,10,11-hexahydro-1H-pyrido[4′,3′:3,4]pyrazolo[1,5-a]azepine-2(7H)-carboxamide] | 118
N#Cc1c(F)ccc(NC(=O)N2CCc3nn4c(c3C2)C(F)(F)CCC(CO)C4)c1F (single isomer, unassigned) [Example 21, (S*)—N-(3-Cyano-2,4-difluorophenyl)-11,11-difluoro-8-(hydroxymethyl)-3,4,8,9,10,11-hexahydro-1H-pyrido[4′,3′:3,4]pyrazolo[1,5-a]azepine-2(7H)-carboxamide] | 1
C[C@@H]1Cc2nn3c(c2CN1C(=O)Nc1ccc(F)c(C#N)c1)C(F)(F)CCC(C(C)(C)O)C3 (single isomer, unassigned) [Example 101, (3R,8S*)—N-(3-Cyano-4-fluorophenyl)-11,11-difluoro-8-(2-hydroxypropan-2-yl)-3-methyl-3,4,8,9,10,11-hexahydro-1H-pyrido[4′,3′:3,4]pyrazolo[1,5-a]azepine-2(7H)-carboxamide] | 44
N#CCC1(O)CCC(F)(F)c2c3c(nn2C1)CCN(C(=O)Nc1ccnc(Br)c1F)C3 (single isomer, unassigned) [Example 41, (R*)—N-(2-Bromo-3-fluoropyridin-4-yl)-8-(cyanomethyl)-11,11-difluoro-8-hydroxy-3,4,89,10,11-hexahydro-1H-pyrido[4′,3′:3,4]pyrazolo[1,5-a]azepine-2(7H)-carboxamide] | 52
C[C@@H]1Cc2nn3c(c2CN1C(=O)Nc1ccnc(C(F)F)c1F)C(F)(F)CCC(O)(CC#N)C3 (single isomer, unassigned) [Example 90, (3R,8S*)-8-(Cyanomethyl)-N-(2-(difluoromethyl)-3-fluoropyridin-4-yl)-11,11-difluoro-8-hydroxy-3-methyl-3,4,8,9,10,11-hexahydro-1H-pyrido[4′,3′:3,4]pyrazolo[1,5-a]azepine-2(7H)-carboxamide] | 54
C#CC1(O)CCC(F)(F)c2c3c(nn2C1)C[C@@H](C)N(C(=O)Nc1ccnc(Br)c1F)C3 (single isomer, unassigned) [Example 96, (3R,8R*)—N-(2-Bromo-3-fluoropyridin-4-yl)-8-ethynyl-11,11-difluoro-8-hydroxy-3-methyl-3,4,8,9,10,11-hexahydro-1H-pyrido[4′,3′:3,4]pyrazolo[1,5-a]azepine-2(7H)-carboxamide] | 35
COC(=O)NCC1CCC(F)(F)c2c3c(nn2C1)C[C@@H](C)N(C(=O)Nc1ccnc(Br)c1F)C3 (single isomer, unassigned) [Example 106, Methyl (((3R,8R*)-2-((2-bromo-3-fluoropyridin-4-yl)carbamoyl)-11,11-difluoro-3-methyl-2,3,4,7,8,9,10,11-octahydro-1H-pyrido[4′,3′:3,4]pyrazolo[1,5-a]azepin-8-yl)methyl)carbamate] | 10
N#Cc1cc(NC(=O)N2CCc3nn4c(c3C2)C(F)(F)CCC(O)(COCC(F)F)C4)ccc1F (single isomer, unassigned) [Example 34, (S*)—N-(3-Cyano-4-fluorophenyl)-8-((2,2-difluoroethoxy)methyl)-11,11-difluoro-8-hydroxy-3,4,8,9,10,11-hexahydro-1H-pyrido[4′,3′:3,4]pyrazolo[1,5-a]azepine-2(7H)-carboxamide] | 17
C[C@@H]1Cc2nn3c(c2CN1C(=O)Nc1ccnc(C(F)F)c1F)C(F)(F)CC(O)CC3 (single isomer, unassigned) [Example 122, (3R,9R*)—N-(2-(Difluoromethyl)-3-fluoropyridin-4-yl)-11,11-difluoro-9-hydroxy-3-methyl-3,4,8,9,10,11-hexahydro-1H-pyrido[4′,3′:3,4]pyrazolo[1,5-a]azepine-2(7H)-carboxamide] | 2
C[C@@H]1Cc2nn3c(c2CN1C(=O)Nc1ccnc(Br)c1F)C(F)(F)CCC(CO)C3 (single isomer, unassigned) [Example 77, (3R,8S*)—N-(2-Bromo-3-fluoropyridin-4-yl)-11,11-difluoro-8-(hydroxymethyl)-3-methyl-3,4,8,9,10,11-hexahydro-1H-pyrido[4′,3′:3,4]pyrazolo[1,5-a]azepine-2(7H)-carboxamide] | 14
C[C@@H]1Cc2nn3c(c2CN1C(=O)Nc1ccc(F)c(C#N)c1)C(F)(F)CCC(F)(CO)C3 (single isomer, unassigned) [Example 114, (3R,8R*)—N-(3-Cyano-4-fluorophenyl)-8,11,11-trifluoro-8-(hydroxylmethyl)-3-methyl-3,4,8,9,10,11-hexahydro-1H-pyrido[4′,3′:3,4]pyrazolo[1,5-a]azepine-2(7H)-carboxamide] | 1
C[C@@H]1Cc2nn3c(c2CN1C(=O)Nc1ccnc(Br)c1F)C(F)(F)CCC(C(C)(C)O)C3 (single isomer, unassigned) [Example 104, (3R,8R*)—N-(2-Bromo-3-fluoropyridin-4-yl)-11,11-difluoro-8-(2-hydroxypropan-2-yl)-3-methyl-3,4,8,9,10,11-hexahydro-1H-pyrido[4′,3′:3,4]pyrazolo[1,5-a]azepine-2(7H)-carboxamide] | 36
C[C@@H]1Cc2nn3c(c2CN1C(=O)Nc1ccnc(Br)c1F)C(F)(F)CCC(F)(CO)C3 (single isomer, unassigned) [Example 115, (3R,8R*)—N-(2-Bromo-3-fluoropyridin-4-yl)-8,11,11-trifluoro-8-(hydroxylmethyl)-3-methyl-3,4,8,9,10,11-hexahydro-1H-pyrido[4′,3′:3,4]pyrazolo[1,5-a]azepine-2(7H)-carboxamide] | 5
C#CC1(O)CCC(F)(F)c2c3c(nn2C1)CCN(C(=O)Nc1ccnc(Br)c1F)C3 (single isomer, unassigned) [Example 65, (S*)—N-(2-Bromo-3-fluoropyridin-4-yl)-8-ethynyl-11,11-difluoro-8-hydroxy-3,4,8,9,10,11-hexahydro-1H-pyrido[4′,3′:3,4]pyrazolo[1,5-a]azepine-2(7H)-carboxamide] | 144

Same assay, conditions: Hepatitis B virus, HepG2.2.15, 144 h, 6 days, encapsidated HBV DNA in supernatant

SMILES | EC50 [nM]
C[C@@H]1Cc2nn3c(c2CN1C(=O)Nc1ccc(F)c(C#N)c1)C(F)(F)CCC(CO)C3 (single isomer, unassigned) [Example 79, (3R,8R*)—N-(3-Cyano-4-fluorophenyl)-11,11-difluoro-8-(hydroxymethyl)-3-methyl-3,4,8,9,10,11-hexahydro-1H-pyrido[4′,3′:3,4]pyrazolo[1,5-a]azepine-2(7H)-carboxamide] | 1
